Experimental data: patent US20250059198A1, “BRM DEGRADING COMPOUNDS AND ASSOCIATED METHODS OF USE” (Arvinas Operations, Inc., priority 2021, published 2025)

Molecular target: T1, BRM (Homo sapiens, UniProt P51531)
T1 construct: Western Blot Screen of BRM Degradation in SW1573 Cells; endogenous in cells; host or cells: SW1573 cells
Assay: BRM degradation (Dmax and DC50) in SW1573 cells, Western blot screen / In-Cell Western screen
Format: cell-based
Conditions: overnight (18-20 hours) treatment; for Dmax: read-out: Dmax (%)** (% degraded)
Summary of the method: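 Dmax and DC50 were derived from BRM levels normalised to an alpha-tubulin control, measured by chemiluminescent Western blotting of lysates or by PFA-fixed In-Cell Western on LI-COR Odyssey. SW1573 cells received compound overnight (18–20 h, 0.1% DMSO final).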

T1 sequence (P51531 whole entry): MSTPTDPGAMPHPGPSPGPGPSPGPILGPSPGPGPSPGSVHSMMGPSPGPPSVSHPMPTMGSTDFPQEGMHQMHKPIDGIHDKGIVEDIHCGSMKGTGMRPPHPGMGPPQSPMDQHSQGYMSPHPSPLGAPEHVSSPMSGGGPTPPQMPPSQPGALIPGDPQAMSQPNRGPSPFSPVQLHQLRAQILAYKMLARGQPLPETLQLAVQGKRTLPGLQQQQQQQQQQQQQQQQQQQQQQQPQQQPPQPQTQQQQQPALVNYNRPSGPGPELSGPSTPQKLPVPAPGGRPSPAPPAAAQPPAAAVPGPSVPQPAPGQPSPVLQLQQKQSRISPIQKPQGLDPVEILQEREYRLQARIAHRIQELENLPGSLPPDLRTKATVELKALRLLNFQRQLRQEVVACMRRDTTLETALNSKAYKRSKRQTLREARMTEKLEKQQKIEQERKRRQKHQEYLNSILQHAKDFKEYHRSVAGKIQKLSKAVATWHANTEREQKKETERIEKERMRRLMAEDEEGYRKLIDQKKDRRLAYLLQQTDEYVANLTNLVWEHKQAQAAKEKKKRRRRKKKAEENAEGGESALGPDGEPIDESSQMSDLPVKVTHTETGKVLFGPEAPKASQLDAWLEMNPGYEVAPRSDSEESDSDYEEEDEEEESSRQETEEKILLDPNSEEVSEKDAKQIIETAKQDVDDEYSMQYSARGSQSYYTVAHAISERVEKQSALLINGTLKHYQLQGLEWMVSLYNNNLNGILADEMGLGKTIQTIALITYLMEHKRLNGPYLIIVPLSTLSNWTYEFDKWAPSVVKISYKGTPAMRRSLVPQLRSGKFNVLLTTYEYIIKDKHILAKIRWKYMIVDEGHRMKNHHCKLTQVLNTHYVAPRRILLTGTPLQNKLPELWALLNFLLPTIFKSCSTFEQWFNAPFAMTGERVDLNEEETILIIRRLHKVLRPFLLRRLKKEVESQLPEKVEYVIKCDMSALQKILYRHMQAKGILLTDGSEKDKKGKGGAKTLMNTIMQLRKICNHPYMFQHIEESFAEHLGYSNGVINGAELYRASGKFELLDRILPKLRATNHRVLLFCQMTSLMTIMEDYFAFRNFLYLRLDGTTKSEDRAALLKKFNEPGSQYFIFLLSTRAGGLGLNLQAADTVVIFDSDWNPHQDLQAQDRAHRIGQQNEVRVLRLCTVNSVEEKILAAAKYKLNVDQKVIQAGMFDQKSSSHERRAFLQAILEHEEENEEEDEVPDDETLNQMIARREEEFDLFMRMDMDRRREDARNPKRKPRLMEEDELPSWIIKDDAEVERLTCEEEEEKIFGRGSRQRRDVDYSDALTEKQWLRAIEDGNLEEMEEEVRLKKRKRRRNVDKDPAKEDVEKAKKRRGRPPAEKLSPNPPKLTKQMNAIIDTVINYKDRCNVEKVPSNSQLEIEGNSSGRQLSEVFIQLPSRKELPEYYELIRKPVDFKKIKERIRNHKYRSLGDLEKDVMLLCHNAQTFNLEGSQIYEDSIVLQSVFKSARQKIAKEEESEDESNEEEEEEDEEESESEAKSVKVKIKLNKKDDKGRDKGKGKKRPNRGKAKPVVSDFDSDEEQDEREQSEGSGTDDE

Structure (SMILES)	DC50	Dmax
Cc1ncsc1-c1ccc([C@H](C)NC(=O)[C@@H]2C[C@@H](O)CN2C(=O)[C@@H](c2cc(N3CCC(CN4CCC(O[C@H]5C[C@H](N6CCC(C(=O)N7C8CCC7CN(c7cc(-c9ccccc9O)nnc7N)C8)CC6)C5)CC4)CC3)no2)C(C)C)cc1 [Compound 25, (2S,4R)-4-hydroxy-N-[(1S)-1-[4-(4-methyl-1,3-thiazol-5-yl)phenyl]ethyl]-1-[(2R)-3-methyl-2-{3-[4-({4-[(1r,3r)-3-(4-{3-[3-amino-6-(2-hydroxyphenyl)pyridazin-4-yl]-3,8-diazabicyclo[3.2.1]octane-8-carbonyl}piperidin-1-yl)cyclobutoxy]piperidin-1-yl}methyl)piperidin-1-yl]-1,2-oxazol-5-yl}butanoyl]pyrrolidine-2-carboxamide]	< 2.5 nM	> 75%
CC(C)[C@H](C(=O)N1C[C@H](O)C[C@H]1C(=O)N[C@@H](C)c1ccc(-c2ccnn2C)cc1)c1cc(N2CCC(OC3CCN(CC4CC(N5CCC([C@@H](C)n6cc(C#Cc7cc(-c8ccccc8O)nnc7N)cn6)CC5)C4)CC3)CC2)no1 (stereo partly drawn) [Compound 109, (2S,4R)-1-[(2S)-2-{3-[4-({1-[(3-{4-[(1R)-1-(4-{2-[3-amino-6-(2-hydroxyphenyl)pyridazin-4-yl]ethynyl}-1H-pyrazol-1-yl)ethyl]piperidin-1-yl}cyclobutyl)methyl]piperidin-4-yl}oxy)piperidin-1-yl]-1,2-oxazol-5-yl}-3-methylbutanoyl]-4-hydroxy-N-[(1S)-1-[4-(1-methyl-1H-pyrazol-5-yl)phenyl]ethyl]pyrrolidine-2-carboxamide]	≥ 30 nM	
Cc1ncsc1-c1ccc([C@H](C)NC(=O)[C@@H]2C[C@@H](O)CN2C(=O)[C@@H](c2cc(N3CCC(CN4CCC5(CC4)CC(CN4CCC(Oc6cc(N7C8CCC7CN(c7cc(-c9ccccc9O)nnc7N)C8)ccn6)CC4)C5)CC3)no2)C(C)C)cc1 [Compound 32, (2S,4R)-1-[(2R)-2-[3-(4-{[2-({4-[(4-{3-[3-amino-6-(2-hydroxyphenyl)pyridazin-4-yl]-3,8-diazabicyclo[3.2.1]octan-8-yl}pyridin-2-yl)oxy]piperidin-1-yl}methyl)-7-azaspiro[3.5]nonan-7-yl]methyl}piperidin-1-yl)-1,2-oxazol-5-yl]-3-methylbutanoyl]-4-hydroxy-N-[(1S)-1-[4-(4-methyl-1,3-thiazol-5-yl)phenyl]ethyl]pyrrolidine-2-carboxamide]	< 2.5 nM	> 75%
Cc1ncsc1-c1ccc([C@H](C)NC(=O)[C@@H]2C[C@@H](O)CN2C(=O)[C@@H](c2cc(N3CCC(CN4CCC(O[C@H]5C[C@H](N6CCC(C(C)(C)N7C8CCC7CN(c7cc(-c9ccccc9O)nnc7N)C8)CC6)C5)CC4)CC3)no2)C(C)C)cc1 [Compound 22, (2S,4R)-4-hydroxy-N-[(1S)-1-[4-(4-methyl-1,3-thiazol-5-yl)phenyl]ethyl]-1-[(2R)-3-methyl-2-{3-[4-({4-[(1r,3r)-3-[4-(2-{3-[3-amino-6-(2-hydroxyphenyl)pyridazin-4-yl]-3,8-diazabicyclo[3.2.1]octan-8-yl}propan-2-yl)piperidin-1-yl]cyclobutoxy]piperidin-1-yl}methyl)piperidin-1-yl]-1,2-oxazol-5-yl}butanoyl]pyrrolidine-2-carboxamide]	< 2.5 nM	> 75%
Cc1ncsc1-c1ccc([C@H](C)NC(=O)[C@@H]2C[C@@H](O)CN2C(=O)[C@@H](c2cc(N3CCC(CN4CCC5(CC4)CC(N4CCO[C@@H](C(C)n6cc(-c7cc(-c8ccccc8O)nnc7N)cn6)C4)C5)CC3)no2)C(C)C)cc1 (stereo partly drawn) [Compound 89, (2S,4R)-1-[(2R)-2-{3-[4-({2-[(2R)-2-(1-{4-[3-amino-6-(2-hydroxyphenyl)pyridazin-4-yl]-1H-pyrazol-1-yl}ethyl)morpholin-4-yl]-7-azaspiro[3.5]nonan-7-yl}methyl)piperidin-1-yl]-1,2-oxazol-5-yl}-3-methylbutanoyl]-4-hydroxy-N-[(1S)-1-[4-(4-methyl-1,3-thiazol-5-yl)phenyl]ethyl]pyrrolidine-2-carboxamide]	< 2.5 nM	> 75%
CC(C)[C@@H](C(=O)N1C[C@H](O)C[C@H]1C(=O)N[C@@H](C)c1ccc(-c2ccnn2C)cc1)c1cc(N2CCC(OC3CCN(CC4CC(N5CCC([C@H](C)n6cc(C#Cc7cc(-c8ccccc8O)nnc7N)cn6)CC5)C4)CC3)CC2)no1 (stereo partly drawn) [Compound 112, (2S,4R)-1-[(2R)-2-{3-[4-({1-[(3-{4-[(1S)-1-(4-{2-[3-amino-6-(2-hydroxyphenyl)pyridazin-4-yl]ethynyl}-1H-pyrazol-1-yl)ethyl]piperidin-1-yl}cyclobutyl)methyl]piperidin-4-yl}oxy)piperidin-1-yl]-1,2-oxazol-5-yl}-3-methylbutanoyl]-4-hydroxy-N-[(1S)-1-[4-(1-methyl-1H-pyrazol-5-yl)phenyl]ethyl]pyrrolidine-2-carboxamide]	< 2.5 nM	> 75%
Cc1ncsc1-c1ccc([C@H](C)NC(=O)[C@@H]2C[C@@H](O)CN2C(=O)[C@@H](c2cc(N3CCC(CN4CCC(O[C@H]5C[C@H](N6CCC([C@H](C)c7cnn(-c8cc(-c9ccccc9O)nnc8N)c7)CC6)C5)CC4)CC3)no2)C(C)C)cc1 [Compound 75, (2S,4R)-4-hydroxy-N-[(1S)-1-[4-(4-methyl-1,3-thiazol-5-yl)phenyl]ethyl]-1-[(2R)-3-methyl-2-{3-[4-({4-[(1r,3r)-3-{4-[(1S)-1-{1-[3-amino-6-(2-hydroxyphenyl)pyridazin-4-yl]-1H-pyrazol-4-yl}ethyl]piperidin-1-yl}cyclobutoxy]piperidin-1-yl}methyl)piperidin-1-yl]-1,2-oxazol-5-yl}butanoyl]pyrrolidine-2-carboxamide]	< 2.5 nM	> 75%
Cc1ncsc1-c1ccc([C@H](C)NC(=O)[C@@H]2C[C@@H](O)CN2C(=O)[C@@H](c2cc(N3CCC(CN4CCC(O[C@H]5C[C@@H](N6CCC([C@H](C)n7cc(-c8cc(-c9ccccc9O)nnc8N)cn7)CC6)C5)CC4)CC3)no2)C(C)C)cc1 [Compound 8, (2S,4R)-4-hydroxy-N-[(1S)-1-[4-(4-methyl-1,3-thiazol-5-yl)phenyl]ethyl]-1-[(2R)-3-methyl-2-{3-[4-({4-[(1s,3s)-3-{4-[(1S)-1-{4-[3-amino-6-(2-hydroxyphenyl)pyridazin-4-yl]-1H-pyrazol-1-yl}ethyl]piperidin-1-yl}cyclobutoxy]piperidin-1-yl}methyl)piperidin-1-yl]-1,2-oxazol-5-yl}butanoyl]pyrrolidine-2-carboxamide]	< 2.5 nM	> 75%
Cc1ncsc1-c1ccc([C@H](C)NC(=O)[C@@H]2C[C@@H](O)CN2C(=O)[C@@H](c2cc(N3CCC(CN4CCC5(CC4)CC(N4CCO[C@@H](C(C)(C)N6C7CCC6CN(c6cc(-c8ccccc8O)nnc6N)C7)C4)C5)CC3)no2)C(C)C)cc1 [Compound 95, (2S,4R)-1-[(2R)-2-{3-[4-({2-[(2R)-2-(2-{3-[3-amino-6-(2-hydroxyphenyl)pyridazin-4-yl]-3,8-diazabicyclo[3.2.1]octan-8-yl}propan-2-yl)morpholin-4-yl]-7-azaspiro[3.5]nonan-7-yl}methyl)piperidin-1-yl]-1,2-oxazol-5-yl}-3-methylbutanoyl]-4-hydroxy-N-[(1S)-1-[4-(4-methyl-1,3-thiazol-5-yl)phenyl]ethyl]pyrrolidine-2-carboxamide]	2.5 to 10 nM	> 75%
CC(C)[C@H](C(=O)N1C[C@H](O)C[C@H]1C(=O)N[C@@H](C)c1ccc(-c2scnc2C#CCOCCOCCOc2cc(N3C4CCC3CN(c3cc(-c5ccccc5O)nnc3N)C4)ccn2)cc1)N1Cc2ccccc2C1=O [Compound 86]	2.5 to 10 nM	> 75%
Cc1ncsc1-c1ccc([C@H](C)NC(=O)[C@@H]2C[C@@H](O)CN2C(=O)[C@@H](c2cc(N3CCC(CN4CCC(O[C@H]5C[C@H](N6CCO[C@H](CN7C8CCC7CN(c7cc(-c9ccccc9O)nnc7N)C8)C6)C5)CC4)CC3)no2)C(C)C)cc1 [Compound 23, (2S,4R)-4-hydroxy-N-[(1S)-1-[4-(4-methyl-1,3-thiazol-5-yl)phenyl]ethyl]-1-[(2R)-3-methyl-2-{3-[4-({4-[(1r,3r)-3-[(2S)-2-({3-[3-amino-6-(2-hydroxyphenyl)pyridazin-4-yl]-3,8-diazabicyclo[3.2.1]octan-8-yl}methyl)morpholin-4-yl]cyclobutoxy]piperidin-1-yl}methyl)piperidin-1-yl]-1,2-oxazol-5-yl}butanoyl]pyrrolidine-2-carboxamide]	< 2.5 nM	> 75%
Cc1ncsc1-c1ccc([C@H](C)NC(=O)[C@@H]2C[C@@H](O)CN2C(=O)[C@@H](c2cc(N3CCC(CN4CCC(O[C@H]5C[C@H](N6CCC(O[C@H]7CCN(c8cc(-c9ccccc9O)nnc8N)C7)CC6)C5)CC4)CC3)no2)C(C)C)cc1 [Compound 77, (2S,4R)-4-hydroxy-N-[(1S)-1-[4-(4-methyl-1,3-thiazol-5-yl)phenyl]ethyl]-1-[(2R)-3-methyl-2-{3-[4-({4-[(1r,3r)-3-(4-{[(3S)-1-[3-amino-6-(2-hydroxyphenyl)pyridazin-4-yl]pyrrolidin-3-yl]oxy}piperidin-1-yl)cyclobutoxy]piperidin-1-yl}methyl)piperidin-1-yl]-1,2-oxazol-5-yl}butanoyl]pyrrolidine-2-carboxamide]	< 2.5 nM	> 75%
CC(C)[C@@H](C(=O)N1C[C@H](O)C[C@H]1C(=O)N[C@@H](C)c1ccc(-c2scnc2C#CCOCCOCCOCCOCCOc2cc(N3C4CCC3CN(c3cc(-c5ccccc5O)nnc3N)C4)ccn2)cc1)N1Cc2ccccc2C1=O [Compound 83, (2S,4R)-N-[(1S)-1-[4-(4-{1-[(4-{3-[3-amino-6-(2-hydroxyphenyl)pyridazin-4-yl]-3,8-diazabicyclo[3.2.1]octan-8-yl}pyridin-2-yl)oxy]-3,6,9,12-tetraoxapentadec-14-yn-15-yl}-1,3-thiazol-5-yl)phenyl]ethyl]-4-hydroxy-1-[(2S)-3-methyl-2-(1-oxo-2,3-dihydro-1H-isoindol-2-yl)butanoyl]pyrrolidine-2-carboxamide]	≥ 30 nM	
